Here are results for 22 compounds from patent US20230097700A1, “AZETIDINE SULFONAMIDE COMPOUND” (DAIICHI SANKYO COMPANY, LIMITED, priority 2019, published 2023).

SMILES strings stand for the structures. Structures can show the parent of a compound that is named as a salt.

In the assay the test system is activated T cells (CD4+ T cells derived from the mouse spleen). Put plainly: Incorporation of 3H-thymidine into activated T cells. As to conditions: 3H-thymidine incorporation, mouse spleen CD4+ T cells activated with Dynabeads Mouse T-Activator CD3/CD28. The assay is classed as cell-based, mouse (C57BL/6J). The protocol:
Effect of a test substance on incorporation of ^3H-thymidine was evaluated using T cells derived from the mouse spleen. The spleen was excised out from a C57BL/6J mouse euthanized, cut into pieces, ground on a cell strainer (40 μm mesh) and centrifuged to collect spleen cells. CD4+ T cells were isolated from the spleen cells by use of EasySep Mouse CD4+ T cell isolation kit (STEMCELL Technologies). CD4+ T cells were seeded to a 96-well round-bottom plate. Test substance dissolved in DMSO (dimethyl sulfoxide) or vehicle (DMSO) was added to culture medium and Dynabeads Mouse T-Activator CD3/CD28 (Thermo Fisher Scientific Inc.) was added. Culture was carried out at 37° C. in 5% CO2. After culture was carried out for 24 hours, ^3H-thymidine (PerkinElmer) diluted with the culture medium was added to individual wells. Culture was further carried out overnight at 37° C. in 5% CO2. In order to measure ^3H-thymidine incorporated in nuclei of the cells, the cells were collected on a filter plate UniFilter-96 GF/B (PerkinElmer) by use of a FilterMate Universal Harvester (PerkinElmer). After the filter plate was placed in a dryer and allowed to stand still for 2 hours or more, scintillation cocktail MicroScint-O (PerkinElmer) was added and radioactivity was measured by TopCount NXT (PerkinElmer). With the radioactivity of a group not containing a test substance being specified as 100% and the radioactivity of a group not activated being specified as 0%, relative radioactivity values of individual wells to which the test substance was added (proliferation rate, % of vehicle) were calculated. The values of “% of vehicle” were entered in analysis software Prism (Version 4.03, GraphPad Software). “Nonlinear regression Log (inhibitor) vs reaction variable tilt” was selected and sigmoid type-fitting (Bottom=0, Top=100) was carried out to calculate 50% inhibition concentration (IC50). The compound of the present invention suppresses ^3H-thymidine incorporation in activated T cells.
Background: Dividing cells build labelled thymidine or BrdU into new DNA.

`CCn1cc(OC2(c3ccc(F)cc3)CN(S(=O)(=O)c3cccc(C[C@H](N)C(=O)O)c3)C2)cn1` [Example 56, (2S)-2-Amino-3-[3-({3-[(1-ethyl-1H-pyrazol-4-yl)oxy]-3-(4-fluorophenyl)azetidin-1-yl)sulfonyl)phenyl]propanoic acid dihydrochloride]: the IC50 was 240 nM.
Compound `Cc1ccc(OC2(c3ccc(F)cc3)CN(S(=O)(=O)c3cccc(C[C@H](N)C(=O)O)c3)C2)cn1` [Example 46, (2S)-2-Amino-3-[3-({3-(4-fluorophenyl)-3-[(6-methylpyridin-3-yl)oxy]azetidin-1-yl}sulfonyl)phenyl]propanoic acid dihydrochloride] showed an IC50 of 31 nM.
To `N[C@@H](Cc1cccc(S(=O)(=O)N2CC(Oc3ccc(Cl)cc3)(c3ccc(F)c(F)c3)C2)c1)C(=O)O` [Example 36, (2S)-2-Amino-3-{3-[3-(4-chlorophenoxy)-3-(3,4-difluorophenyl)azetidin-1-sulfonyl]phenyl}propanoic acid monohydrochloride] belongs 19 nM; to `Cc1ccc(C2(Oc3ccc(C#N)cc3)CN(S(=O)(=O)c3cccc(C[C@H](N)C(=O)O)c3)C2)cc1` [Example 13, (2S)-2-Amino-3-{3-[3-(4-cyanophenoxy)-3-(4-methylphenyl)azetidine-1-sulfonyl]phenyl}propanoic acid monoformate], 9.1 nM.
The value for `N[C@@H](Cc1cccc(S(=O)(=O)N2CC(Oc3cccc(F)c3)(c3ccc(Cl)cc3)C2)c1)C(=O)O` [Example 55, (2S)-2-Amino-3-(3-{[3-(4-chlorophenyl)-3-(3-fluorophenoxy)azetidin-1-yl]sulfonyl}phenyl)propanoic acid monoformate] was 7.8 nM.
The value for `C[C@H](OC(=O)[C@@H](N)Cc1cccc(S(=O)(=O)N2CC(Oc3cccc(F)c3)(c3ccccc3)C2)c1)C(=O)N(C)C` [Example 31, (2S)-1-(Dimethylamino)-1-oxopropan-2-yl (2S)-2-amino-3-{3-[3-(3-fluorophenoxy)-3-phenylazetidin-1-sulfonyl]phenyl}propanoate monotrifluoroacetate] was 21 nM; that for `Cc1ccc(OC2(c3ccccc3)CN(S(=O)(=O)c3cccc(C[C@H](N)C(=O)O)c3)C2)cc1F` [Example 45, (2S)-2-Amino-3-(3-{[3-(3-fluoro-4-methylphenoxy)-3-phenylazetidin-1-yl]sulfonyl}phenyl)propanoic acid monoformate] was 23 nM.
Regarding `N[C@@H](Cc1cccc(S(=O)(=O)N2CC(Oc3cccc(-c4ccccc4)c3)(c3ccccc3)C2)c1)C(=O)O` [Example 3, (2S)-2-Amino-3-(3-{3-[([1,1′-biphenyl]-3-yl)oxy]-3-phenylazetidin-1-sulfonyl)phenyl)propanoic acid], the IC50 was found to be 35 nM.
For `CC(=O)c1ccc(OC2(c3ccc(Cl)cc3)CN(S(=O)(=O)c3cccc(C[C@H](N)C(=O)O)c3)C2)cc1` [Example 9, (2S)-3-{3-[3-(4-Acetylphenoxy)-3-(4-chlorophenyl)azetidin-1yl]sulfonylphenyl}-2-aminopropanoic acid monohydrochloride], the IC50 stood at 7.6 nM. This IC50 lies about 4.6-fold lower than the previous one.
With `N[C@@H](Cc1cccc(S(=O)(=O)N2CC(Oc3ccc(F)cc3)(c3ccc(F)cn3)C2)c1)C(=O)O` [Example 47, (2S)-2-Amino-3-(3-{[3-(4-fluorophenoxy)-3-(5-fluoropyridin-2-yl)azetidin-1-yl]sulfonyl}phenyl)propanoic acid dihydrochloride], 34 nM corresponded to half-maximal inhibition (IC50).
The value for `N[C@@H](Cc1cccc(S(=O)(=O)N2CC(Oc3ccccc3)(c3ccccc3)C2)c1)C(=O)O` [Example 88, (2S)-2-Amino-3-(3-{[3-(3-phenoxy)-3-phenylazetidin-1-yl]sulfonyl}phenyl)propanoic acid] was 15 nM.
To `NC(=O)c1ccc(OC2(c3ccc(F)cc3)CN(S(=O)(=O)c3cccc(C[C@H](N)C(=O)O)c3)C2)cc1` [Example 22, (2S)-2-Amino-3-{3-[3-(4-carbamoylphenoxy)-3-(4-fluorophenyl)azetidine-1-sulfonyl]phenyl}propanoic acid monotrifluoroacetate] belongs 4.8 nM; to `N[C@@H](Cc1cccc(S(=O)(=O)N2CC(Oc3ccc4c(c3)CCNC4=O)(c3ccc(F)cc3)C2)c1)C(=O)O` [Example 8, (2S)-2-Amino-3-(3-{3-(4-fluorophenyl)-3-[(1-oxo-1,2,3,4-tetrahydroisoquinolin-6-yl)oxy]azetidin-1-sulfonyl}phenyl)propanoic acid monohydrochloride], 13 nM; to `Cc1ccc(OC2(c3ccccc3)CN(S(=O)(=O)c3cccc(C[C@H](N)C(=O)O)c3)C2)cc1` [Example 16, (2S)-Amino-3-(3-{[3-phenyl-3-(p-tolyloxy)azetidin-1-yl]sulfonyl)phenyl)propanoic acid], 10 nM.
To `N[C@@H](Cc1cccc(S(=O)(=O)N2CC(Oc3ccc4nccnc4c3)(c3ccccc3)C2)c1)C(=O)O` [Example 6, (2S)-2-Amino-3-(3-{3-phenyl-3-[(quinoxalin-6-yl)oxy]azetidin-1-sulfonyl}phenyl)propanoic acid monohydrochloride] belongs 6.6 nM.
Regarding `N[C@@H](Cc1cccc(S(=O)(=O)N2CC(Oc3ccc4c(c3)OCCO4)(c3ccccc3)C2)c1)C(=O)O` [Example 7, (2S)-2-Amino-3-(3-{3-[(2,3-dihydro-1,4-benzodioxin-6-yl)oxy]-3-phenylazetidin-1-sulfonyl}phenyl)propanoic acid monohydrochloride], the IC50 stood at 16 nM.
To `N#Cc1ccc(OC2(c3ccc(F)cc3)CN(S(=O)(=O)c3cccc(C[C@H](N)C(=O)O)c3)C2)cc1` [Example 34, (2S)-2-Amino-3-{3-[3-(4-cyanophenoxy)-3-(4-fluorophenyl)azetidine-1-sulfonyl]phenyl}propanoic acid monohydrochloride] belongs 3.3 nM.
To `N#Cc1ccc(OC2(c3ccc(F)cc3)CN(S(=O)(=O)c3cccc(C[C@H](N)C(=O)O)c3)C2)cn1` [Example 86b, monoformate] belongs 17 nM.
The value for `NC(=O)c1ccc(OC2(c3ccccc3)CN(S(=O)(=O)c3cccc(C[C@H](N)C(=O)O)c3)C2)cc1` [Example 20, (2S)-2-Amino-3-{3-[3-(4-carbamoylphenoxy)-3-phenylazetidine-1-sulfonyl]phenyl}propanoic acid monoformate] was 8.8 nM.
Regarding `CC(=O)c1cc(OC2(c3ccc(F)cc3)CN(S(=O)(=O)c3cccc(C[C@H](N)C(=O)O)c3)C2)ccc1F` [Example 5, (2S)-3-{3-[3-(3-Acetyl-4-fluorophenoxy)-3-(4-fluorophenyl)azetidine-1-sulfonyl]phenyl}-2-aminopropanoic acid monohydrochloride], the IC50 worked out at 30 nM.
The compound `N[C@@H](Cc1cccc(S(=O)(=O)N2CC(Oc3cccc(F)c3)(c3ccc(F)cc3)C2)c1)C(=O)O` [Example 15, (2S)-Amino-3-(3-{[3-(3-fluorophenoxy)-3-(4-fluorophenyl)azetidin-1-yl]sulfonyl}phenyl)propanoic acid] returned a concentration for half-maximal inhibition (IC50) of 14 nM.
The value for `[2H]c1c([2H])c([2H])c(OC2(c3ccccc3)CN(S(=O)(=O)c3cccc(C[C@H](N)C(=O)O)c3)C2)c([2H])c1[2H]` [Example 24, (2S)-2-Amino-3-(3-{3-phenyl-3-[(^2H5)phenyloxy]azetidin-1-sulfonyl}phenyl)propanoic acid] was 12 nM.

Broadly, the IC50 is the concentration at which inhibition is half-maximal. The low end stands for greater potency in that assay, the high end for weaker potency in that assay.
